Tests used:
[1] = molecular target: Bn-VAKGL pentapeptide of filamin A (FLNA) (Homo sapiens, UniProt P21333); assay: FITC-NLX-based FLNA screening assay (FLNA peptide binding assay); details: for Percent inhibition of FITC-NLX binding, 0.01 μM: 0.01 μM compound; for Percent inhibition of FITC-NLX binding, 0.01 μM / Percent inhibition of FITC-NLX binding, 0.1 μM / Percent inhibition of FITC-NLX binding, 1 μM: 10 nM FITC-NLX; for Percent inhibition of FITC-NLX binding, 0.1 μM: 0.1 μM compound; for Percent inhibition of FITC-NLX binding, 1 μM: 1 μM compound
Procedure: The final assay volume is 100 μl.
Compounds are tested in triplicate or quadruplicate.

mu opiate receptor (MOR) = molecular target: T1, mu opiate receptor (MOR) (Rattus norvegicus, UniProt P33535); assay: [35S]GTPγS binding assay using striatal membranes (MOR agonist activity); format: biochemical; set-up: MOR agonist activity, [35S]GTPγS binding to Gαo, 0.1 μM / MOR agonist activity, [35S]GTPγS binding to Gαo, 1 μM / MOR agonist activity, [35S]GTPγS binding to Gαo, 1 μM + BFNA: reference not given here; details: for MOR agonist activity, [35S]GTPγS binding to Gαo, 0.1 μM: 0.1 μM compound; for MOR agonist activity, [35S]GTPγS binding to Gαo, 0.1 μM / MOR agonist activity, [35S]GTPγS binding to Gαo, 1 μM: striatal membranes; for MOR agonist activity, [35S]GTPγS binding to Gαo, 1 μM + BFNA: 1 μM compound + 1 μM β-funaltrexamine; for MOR agonist activity, [35S]GTPγS binding to Gαo, 1 μM: 1 μM compound
T1 construct: from tissue; host or cells: striatal tissue (membrane preparation)
Procedure: To assess the mu opiate receptor (MOR) agonist activity of positive compounds from the FLNA screening, compounds were tested in a [^35S]GTPγS binding assay using striatal membranes. Our previous study has shown that in striatal membranes, activation of MOR leads to an increase in [^35S]GTPγS binding to Gαo (Wang et al., 2005 Neuroscience 135:247-261).
Striatal tissue was homogenized in 10 volumes of ice cold 25 mM HEPES buffer, pH 7.4, which contained 1 mM EGTA, 100 mM sucrose, 50 μg/ml leupeptin, 0.04 mM PMSF, 2 μg/ml soybean trypsin inhibitor and 0.2% 2-mercaptoethanol. The homogenates were centrifuged at 800×g for 5 minutes and the supernatants were centrifuged at 49,000×g for 20 minutes. The resulting pellets were suspended in 10 volume of reaction buffer, which contained 25 mM HEPES, pH 7.5, 100 mM NaCl, 50 μg/ml leupeptin, 2 μg/ml soybean trypsin inhibitor, 0.04 mM PMSF and 0.02% […].
The resultant striatal membrane preparation (200 μg) was admixed and maintained (incubated) at 30° C. for 5 minutes in reaction buffer as above that additionally contained 1 mM MgCl2 and 0.5 nM [^35S]GTPγS (0.1 μCi/assay, PerkinElmer Life and Analytical Sciences) in a total volume of 250 μl and continued for 5 minutes in the absence or presence of 0.1-10 μM of an assayed compound of interest. The reaction was terminated by dilution with 750 μl of ice-cold reaction buffer that contained 20 mM MgCl2 and 1 mM EGTA and immediate centrifugation at 16,000×g for 5 minutes.
The resulting pellet was solubilized by sonicating for 10 seconds in 0.5 ml of immunoprecipitation buffer containing 0.5% digitonin, 0.2% sodium cholate and 0.5% NP-40. Normal rabbit serum (1 μl) was added to 1 ml of lysate and incubated at 25° C. for 30 minutes. Nonspecific immune complexes were removed by incubation with 25 μl of protein A/G-conjugated agarose beads at 25° C. for 30 minutes followed by centrifugation at 5,000×g at 4° C. for 5 minutes. The supernatant was divided and separately incubated at 25° C. for 30 minutes with antibodies raised against Gαo proteins (1:1,000 dilutions).
The immunocomplexes so formed were collected by incubation at 25° C. for 30 minutes with 40 μl of agarose-conjugated protein A/G beads and centrifugation at 5,000×g at 4° C. for 5 minutes. The pellet was washed and suspended in buffer containing 50 mM Tris-HCl, pH 8.0, and 1% NP-40. The radioactivity in the suspension was determined by liquid scintillation spectrometry. […] DAMGO (H-Tyr-D-Ala-Gly-N-MePhe-Gly-OH; 1 or 10 μM) was used as a positive control.

T1 sequence (P33535 whole entry): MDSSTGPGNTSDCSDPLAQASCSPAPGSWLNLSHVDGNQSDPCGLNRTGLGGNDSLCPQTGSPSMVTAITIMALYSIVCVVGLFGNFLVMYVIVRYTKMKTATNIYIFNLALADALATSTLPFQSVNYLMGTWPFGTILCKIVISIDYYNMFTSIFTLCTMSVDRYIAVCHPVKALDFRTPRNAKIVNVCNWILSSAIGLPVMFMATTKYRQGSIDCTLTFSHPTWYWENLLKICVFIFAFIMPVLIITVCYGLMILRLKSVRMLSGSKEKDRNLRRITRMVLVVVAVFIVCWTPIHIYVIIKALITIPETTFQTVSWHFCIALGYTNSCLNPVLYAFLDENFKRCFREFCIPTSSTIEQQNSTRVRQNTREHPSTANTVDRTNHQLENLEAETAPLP

Structure (SMILES) | Percent inhibition of FITC-NLX binding, 0.01 μM [1] [%] | Percent inhibition of FITC-NLX binding, 0.1 μM [1] [%] | Percent inhibition of FITC-NLX binding, 1 μM [1] [%] | MOR agonist activity, [35S]GTPγS binding to Gαo, 0.1 μM (mu opiate receptor (MOR)) [%] | MOR agonist activity, [35S]GTPγS binding to Gαo, 1 μM + BFNA (mu opiate receptor (MOR)) [%] | MOR agonist activity, [35S]GTPγS binding to Gαo, 1 μM (mu opiate receptor (MOR)) [%] | inhibition at 0.01 µM ([1]; read-out: Percent inhibition of FITC-NLX binding, 0.01 μM) [%] | inhibition at 0.1 µM ([1]; read-out: Percent inhibition of FITC-NLX binding, 0.1 μM) [%] | inhibition at 1 µM ([1]; read-out: Percent inhibition of FITC-NLX binding, 1 μM) [%]
COc1ccccc1C(=O)CC1c2c(cc3c(c2OC)OCO3)CC[N+]1(C)C (stereo not drawn) [B0025] | 41.7 | 49.4 | 56.6 | 159.6 | 137.7 | 234.6 | – | – | –
COc1ccccc1CC(O)CC1c2c(cc3c(c2OC)OCO3)CCN1C (stereo not drawn) [B0030] | 47.0 | 50.5 | 57.6 | 107.2 | 90.1 | 276.1 | – | – | –
COc1c2c(cc3c1C(CC(=O)c1ccncc1)[N+](C)(C)CC3)OCO2 (stereo not drawn) [B0005] | 31.8 | 34.8 | 41.7 | 89.2 | 45.1 | 110.4 | – | – | –
COc1ccc(C(=O)CC2c3c(cc4c(c3OC)OCO4)CC[N+]2(C)C)cc1OC.[I-] (stereo not drawn) [B0026] | 41.1 | 43.3 | 48.2 | 152.0 | 28.8 | 233.3 | – | – | –
COc1c2c(cc3c1C(CC(=O)Cc1ccc(C#N)cc1)[N+](C)(C)CC3)OCO2 (stereo not drawn) [B0012] | 39.4 | 46.9 | 51.7 | 167.4 | 145.1 | 212.0 | – | – | –
COc1c2c(cc3c1C(CC(=O)c1ccc(F)c(F)c1)[N+](C)(C)CC3)OCO2 (stereo not drawn) [B0003] | – | – | – | 103.0 | 18.6 | 131.1 | 45.4 | 52.9 | 63.5
COc1c2c(cc3c1C(CC(=O)CCc1ccccc1)N(C)CC3)OCO2 (stereo not drawn) [B0050] | 29.2 | 34.5 | 39.8 | 98.2 | 48.8 | 211.0 | – | – | –
COc1c2c(cc3c1C(CC(=O)/C=C/c1ccc(Cl)cc1)[N+](C)(C)CC3)OCO2 (stereo not drawn) [B0019] | 34.3 | 41.0 | 49.0 | 101.0 | 81.4 | 256.5 | – | – | –
COc1ccc(CCC(=O)CC2c3c(cc4c(c3OC)OCO4)CC[N+]2(C)C)cc1OC.[I-] (stereo not drawn) [B0042] | 40.8 | 46.4 | 51.6 | 69.9 | 43.1 | 107.5 | – | – | –

Source: patent publication US20100280061A1, “NOVEL ANALGESIC THAT BINDS FILAMIN A” (priority 2009, published 2010)
